Legend:
PTPN2 [1] = assay: HiBiT-Degradation B16F10.4 PTPN2; type: cell-based; details: B16F10.4 cells, 24.0 hours
PTPN2 [2] = target: T1, PTPN2 (Homo sapiens, UniProt P17706); assay: HiBiT-Degradation 293T.109 PTPN2 (Nano-Glo HiBiT Lytic Assay); type: cell-based; details: 293T.109 (HiBiT-PTPN2) cells, 24.0 hours
T1 construct: expressed in transfected cells; host or cells: 293T (293T.109 HiBiT-PTPN2 line; parental 293T WT from ATCC)
T1 sequence (P17706 1-415): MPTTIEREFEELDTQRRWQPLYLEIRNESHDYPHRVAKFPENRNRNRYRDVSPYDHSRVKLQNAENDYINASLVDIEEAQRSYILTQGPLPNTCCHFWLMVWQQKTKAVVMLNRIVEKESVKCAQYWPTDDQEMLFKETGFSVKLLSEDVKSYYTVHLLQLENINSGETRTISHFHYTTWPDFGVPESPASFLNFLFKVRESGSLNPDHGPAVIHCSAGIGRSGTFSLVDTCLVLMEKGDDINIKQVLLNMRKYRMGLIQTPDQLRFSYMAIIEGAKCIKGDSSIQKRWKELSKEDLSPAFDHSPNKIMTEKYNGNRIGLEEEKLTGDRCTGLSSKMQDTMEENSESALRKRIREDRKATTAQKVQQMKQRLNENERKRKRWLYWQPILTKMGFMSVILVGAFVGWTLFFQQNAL
From the text: Dulbecco's modified Eagle medium (DMEM) without phenol red and fetal bovine serum (FBS) were purchased from Gibco (Grand Island, NY, USA). Nano-Glo® HiBIT Lytic Assay System was purchased from Promega (Madison, WI, USA). 293T.109 (HiBiT-PTPN2) cell line was generated by ectopically expressing PTPN2 with N-terminal HiBiT fusion tag in 293T WT cell line purchased from ATCC (Manassas, VA, USA). Cell culture flasks and 384-well microplates were acquired from VWR (Radnor, PA, USA).
PTPN2 degradation was determined based on quantification of luminescent signal using Nano-Glo® HiBIT Lytic Assay kit. Test compounds were added to the 384-well plate from a top concentration of 10 μM with 11 points, half log titration in duplicates. 293T.109 cells were added into 384-well plates at a cell density of 5000 cells per well. The plates were kept at 37° C. with 5% CO2 for 24 hours. The cells treated in the absence of the test compound were the negative control and the cells without Nano-Glo® HiBiT Lytic reagent were the positive control. After 24-hour incubation, Nano-Glo® HiBIT Lytic Assay reagents were added to the cells. Luminescence was acquired on EnVision™ Multilabel Reader (PerkinElmer, Santa Clara, CA, USA).

| Compound | DC50 (PTPN2 [1]) | DC50 (PTPN2 [2]) |
| --- | --- | --- |
| O=C1CCC(N2C(=O)c3cccc(NCc4cn(C5CN(C(=O)Nc6ccc7c(F)c(N8CC(=O)NS8(=O)=O)c(O)cc7c6)C5)nn4)c3C2=O)C(=O)N1 (stereo not drawn) [Example 17, 3-[4-[[[2-(2,6-dioxo-3-piperidyl)-1,3-dioxo-isoindolin-4-yl]amino]methyl]triazol-1-yl]-N-[5-fluoro-7-hydroxy-6-(1,1,4-trioxo-1,2,5-thiadiazolidin-2-yl)-2-naphthyl]azetidine-1-carboxamide] | ≥ 1000 nM | 50 to 200 nM |
| Cn1c(=O)n(C2CCC(=O)NC2=O)c2ccc(C3CCN(CC(=O)Nc4ccc5c(F)c(N6CC(=O)NS6(=O)=O)c(O)cc5c4)CC3)cc21 (stereo not drawn) [Example 22, N-(6-(1,1-dioxido-4-oxo-1,2,5-thiadiazolidin-2-yl)-5-fluoro-7-hydroxynaphthalen-2-yl)-2-(4-(1-(2,6-dioxopiperidin-3-yl)-3-methyl-2-oxo-2,3-dihydro-1H-benzo[d]imidazol-5-yl)piperidin-1-yl)acetamide] | 50 to 200 nM | < 10 nM |
| O=C1CCC(n2c(=O)oc3cc(C4CCN(CC(=O)Nc5ccc6c(F)c(N7CC(=O)NS7(=O)=O)c(O)cc6c5)CC4)ccc32)C(=O)N1 (stereo not drawn) [Example 23, 2-[4-[3-(2,6-dioxo-3-piperidyl)-2-oxo-1,3-benzoxazol-6-yl]-1-piperidyl]-N-[5-fluoro-7-hydroxy-6-(1,1,4-trioxo-1,2,5-thiadiazolidin-2-yl)-2-naphthyl]acetamide] | 50 to 200 nM | 10 to 50 nM |
| CC(C)n1c(=O)n(C2CCC(=O)NC2=O)c2ccc(C3CCN(CC(=O)Nc4ccc5c(F)c(N6CC(=O)NS6(=O)=O)c(O)cc5c4)CC3)cc21 (stereo not drawn) [Example 24, 2-[4-[1-(2,6-dioxo-3-piperidyl)-3-isopropyl-2-oxo-benzimidazol-5-yl]-1-piperidyl]-N-[5-fluoro-7-hydroxy-6-(1,1,4-trioxo-1,2,5-thiadiazolidin-2-yl)-2-naphthyl]acetamide] | 50 to 200 nM | 50 to 200 nM |
| Cn1c(=O)n(C2CCC(=O)NC2=O)c2cccc(C3CCN(CC(=O)Nc4ccc5c(F)c(N6CC(=O)NS6(=O)=O)c(O)cc5c4)CC3)c21 (stereo not drawn) [Example 25, 2-[4-[1-(2,6-dioxo-3-piperidyl)-3-methyl-2-oxo-benzimidazol-4-yl]-1-piperidyl]-N-[5-fluoro-7-hydroxy-6-(1,1,4-trioxo-1,2,5-thiadiazolidin-2-yl)-2-naphthyl]acetamide] | ≥ 1000 nM | 200 to 1000 nM |
| O=C1CCC(N2C(=O)c3cccc4c(C5CCN(CC(=O)Nc6ccc7c(F)c(N8CC(=O)NS8(=O)=O)c(O)cc7c6)CC5)ccc2c34)C(=O)N1 (stereo not drawn) [Example 26, 2-[4-[1-(2,6-dioxo-3-piperidyl)-2-oxo-benzo[cd]indol-6-yl]-1-piperidyl]-N-[5-fluoro-7-hydroxy-6-(1,1,4-trioxo-1,2,5-thiadiazolidin-2-yl)-2-naphthyl]acetamide] | 50 to 200 nM | 50 to 200 nM |
| Cn1c(=O)n(C2CCC(=O)NC2=O)c2ccc(NC3CN(CC(=O)Nc4ccc5c(F)c(N6CC(=O)NS6(=O)=O)c(O)cc5c4)C3)cc21 (stereo not drawn) [Example 27, 2-[3-[[1-(2,6-dioxo-3-piperidyl)-3-methyl-2-oxo-benzimidazol-5-yl]amino]azetidin-1-yl]-N-[5-fluoro-7-hydroxy-6-(1,1,4-trioxo-1,2,5-thiadiazolidin-2-yl)-2-naphthyl]acetamide] | 200 to 1000 nM | 10 to 50 nM |
| Cn1nc(C2CCC(=O)NC2=O)c2ccc(C3CCN(CC(=O)Nc4ccc5c(F)c(N6CC(=O)NS6(=O)=O)c(O)cc5c4)CC3)cc21 (stereo not drawn) [Example 28, 2-[4-[3-(2,6-dioxo-3-piperidyl)-1-methyl-indazol-6-yl]-1-piperidyl]-N-[5-fluoro-7-hydroxy-6-(1,1,4-trioxo-1,2,5-thiadiazolidin-2-yl)-2-naphthyl]acetamide] | 50 to 200 nM | < 10 nM |
| Cn1c(=O)n(C2CCC(=O)NC2=O)c2ccc(C3CCN(CCNC(=O)c4ccc5c(F)c(N6CC(=O)NS6(=O)=O)c(O)cc5c4)CC3)cc21 (stereo not drawn) [Example 29, N-[2-[4-[1-(2,6-dioxo-3-piperidyl)-3-methyl-2-oxo-benzimidazol-5-yl]-1-piperidyl]ethyl]-5-fluoro-7-hydroxy-6-(1,1,4-trioxo-1,2,5-thiadiazolidin-2-yl)naphthalene-2-carboxamide] | 50 to 200 nM | < 10 nM |

The remaining lines, values ahead:

| DC50 (PTPN2 [1]) | DC50 (PTPN2 [2]) | Compound |
| --- | --- | --- |
| ≥ 1000 nM | 200 to 1000 nM | O=C1CCC(N2C(=O)c3cccc(NCc4cnn(CCC(=O)Nc5ccc6c(F)c(N7CC(=O)NS7(=O)=O)c(O)cc6c5)c4)c3C2=O)C(=O)N1 (stereo not drawn) [Example 12, 3-[4-[[[2-(2,6-dioxo-3-piperidyl)-1,3-dioxo-isoindolin-4-yl]amino]methyl]pyrazol-1-yl]-N-[5-fluoro-7-hydroxy-6-(1,1,4-trioxo-1,2,5-thiadiazolidin-2-yl)-2-naphthyl]propanamide] |
| 200 to 1000 nM | 50 to 200 nM | O=C1CCC(N2Cc3c(NCc4cnn(CCC(=O)Nc5ccc6c(F)c(N7CC(=O)NS7(=O)=O)c(O)cc6c5)c4)cccc3C2=O)C(=O)N1 (stereo not drawn) [Example 13, 3-[4-[[[2-(2,6-dioxo-3-piperidyl)-1-oxo-isoindolin-4-yl]amino]methyl]pyrazol-1-yl]-N-[5-fluoro-7-hydroxy-6-(1,1,4-trioxo-1,2,5-thiadiazolidin-2-yl)-2-naphthyl]propanamide] |
| 200 to 1000 nM | 200 to 1000 nM | O=C1CCC(N2C(=O)c3ccc(NCc4cn(CCC(=O)Nc5ccc6c(F)c(N7CC(=O)NS7(=O)=O)c(O)cc6c5)nn4)cc3C2=O)C(=O)N1 (stereo not drawn) [Example 14, N-(6-(1,1-dioxido-4-oxo-1,2,5-thiadiazolidin-2-yl)-5-fluoro-7-hydroxynaphthalen-2-yl)-3-(4-(((2-(2,6-dioxopiperidin-3-yl)-1,3-dioxoisoindolin-5-yl)amino)methyl)-1H-1,2,3-triazol-1-yl)propanamide] |
| 200 to 1000 nM | 200 to 1000 nM | O=C1CCC(N2Cc3cc(NCc4cn(CCC(=O)Nc5ccc6c(F)c(N7CC(=O)NS7(=O)=O)c(O)cc6c5)nn4)ccc3C2=O)C(=O)N1 (stereo not drawn) [Example 15, 3-[4-[[[2-(2,6-dioxo-3-piperidyl)-1-oxo-isoindolin-5-yl]amino]methyl]triazol-1-yl]-N-[5-fluoro-7-hydroxy-6-(1,1,4-trioxo-1,2,5-thiadiazolidin-2-yl)-2-naphthyl]propanamide] |
| 200 to 1000 nM | 50 to 200 nM | O=C1CCC(N2Cc3cc(NCc4cnn(CCC(=O)Nc5ccc6c(F)c(N7CC(=O)NS7(=O)=O)c(O)cc6c5)c4)ccc3C2=O)C(=O)N1 (stereo not drawn) [Example 16, 3-[4-[[[2-(2,6-dioxo-3-piperidyl)-1-oxo-isoindolin-5-yl]amino]methyl]pyrazol-1-yl]-N-[5-fluoro-7-hydroxy-6-(1,1,4-trioxo-1,2,5-thiadiazolidin-2-yl)-2-naphthyl]propanamide] |
| ≥ 1000 nM | 200 to 1000 nM | CC(C)(Nc1cccc2c1C(=O)N(C1CCC(=O)NC1=O)C2=O)c1cn(CCC(=O)Nc2ccc3c(F)c(N4CC(=O)NS4(=O)=O)c(O)cc3c2)nn1 (stereo not drawn) [Example 18, N-(6-(1,1-dioxido-4-oxo-1,2,5-thiadiazolidin-2-yl)-5-fluoro-7-hydroxynaphthalen-2-yl)-3-(4-(2-((2-(2,6-dioxopiperidin-3-yl)-1,3-dioxoisoindolin-4-yl)amino)propan-2-yl)-1H-1,2,3-triazol-1-yl)propanamide] |
| 200 to 1000 nM | 50 to 200 nM | O=C1CCC(N2Cc3c(OCc4cn(CCC(=O)Nc5ccc6c(F)c(N7CC(=O)NS7(=O)=O)c(O)cc6c5)nn4)cccc3C2=O)C(=O)N1 (stereo not drawn) [Example 19, N-(6-(1,1-dioxido-4-oxo-1,2,5-thiadiazolidin-2-yl)-5-fluoro-7-hydroxynaphthalen-2-yl)-3-(4-(((2-(2,6-dioxopiperidin-3-yl)-1-oxoisoindolin-4-yl)oxy)methyl)-1H-1,2,3-triazol-1-yl)propanamide] |
| 50 to 200 nM | 50 to 200 nM | O=C1CCC(N2Cc3cc(OCc4cn(CCC(=O)Nc5ccc6c(F)c(N7CC(=O)NS7(=O)=O)c(O)cc6c5)nn4)ccc3C2=O)C(=O)N1 (stereo not drawn) [Example 20, 3-[4-[[2-(2,6-dioxo-3-piperidyl)-1-oxo-isoindolin-5-yl]oxymethyl]triazol-1-yl]-N-[5-fluoro-7-hydroxy-6-(1,1,4-trioxo-1,2,5-thiadiazolidin-2-yl)-2-naphthyl]propanamide] |
| 200 to 1000 nM | 50 to 200 nM | O=C1CCC(N2Cc3c(OCc4cnn(CCC(=O)Nc5ccc6c(F)c(N7CC(=O)NS7(=O)=O)c(O)cc6c5)c4)cccc3C2=O)C(=O)N1 (stereo not drawn) [Example 21, N-(6-(1,1-dioxido-4-oxo-1,2,5-thiadiazolidin-2-yl)-5-fluoro-7-hydroxynaphthalen-2-yl)-3-(4-(((2-(2,6-dioxopiperidin-3-yl)-1-oxoisoindolin-4-yl)oxy)methyl)-1H-pyrazol-1-yl)propanamide] |
